Our source for the inhibition values is paper PMC10275055, “Preventing recurrence in Sonic Hedgehog Subgroup Medulloblastoma using the OLIG2 inhibitor CT-179” (Research Square, 2023).

This experiment addresses T1, Fetal Liver Tyrosine Kinase 3 (FLT3) (Homo sapiens, UniProt P36888).
T1 sequence (P36888 27-993): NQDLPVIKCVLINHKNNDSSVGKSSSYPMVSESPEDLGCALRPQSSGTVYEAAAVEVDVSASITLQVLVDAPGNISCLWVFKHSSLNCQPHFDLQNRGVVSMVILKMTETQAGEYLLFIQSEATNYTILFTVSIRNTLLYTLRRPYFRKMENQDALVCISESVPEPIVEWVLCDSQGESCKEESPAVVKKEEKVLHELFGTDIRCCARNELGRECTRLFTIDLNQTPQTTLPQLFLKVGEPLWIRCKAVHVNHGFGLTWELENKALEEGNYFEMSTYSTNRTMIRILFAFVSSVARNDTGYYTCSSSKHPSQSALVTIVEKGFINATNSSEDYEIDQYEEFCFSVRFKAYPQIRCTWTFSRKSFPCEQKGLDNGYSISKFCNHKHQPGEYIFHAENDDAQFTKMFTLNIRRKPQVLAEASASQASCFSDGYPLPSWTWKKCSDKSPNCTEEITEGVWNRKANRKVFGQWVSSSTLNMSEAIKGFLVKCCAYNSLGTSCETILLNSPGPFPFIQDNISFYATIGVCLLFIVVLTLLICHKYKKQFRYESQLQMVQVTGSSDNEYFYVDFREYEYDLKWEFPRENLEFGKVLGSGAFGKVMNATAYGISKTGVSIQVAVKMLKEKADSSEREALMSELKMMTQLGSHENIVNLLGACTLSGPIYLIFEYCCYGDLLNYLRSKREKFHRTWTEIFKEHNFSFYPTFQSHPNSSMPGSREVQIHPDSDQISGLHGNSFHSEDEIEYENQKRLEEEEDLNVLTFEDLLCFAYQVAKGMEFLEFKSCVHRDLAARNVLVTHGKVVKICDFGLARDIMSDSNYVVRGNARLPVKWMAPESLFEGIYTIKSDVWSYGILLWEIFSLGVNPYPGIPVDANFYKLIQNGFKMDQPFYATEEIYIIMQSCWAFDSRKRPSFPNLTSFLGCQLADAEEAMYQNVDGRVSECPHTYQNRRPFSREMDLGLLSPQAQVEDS
In words: Kinase profiling (KINOMEscan / SelectScreen) and dose response follow-up, FLT3. Type of experiment: biochemical. The conditions noted are these: ATP equal to Km. As for the experimental part: Effect of CT-179 on protein kinase activity was evaluated using the Thermofisher Scientific SelectScreen Kinase Profiling Service. Over 400 human protein kinases were tested in the presence of 1 μM final concentration of CT-179 at an ATP concentration equal to the known ATP Km for each kinase. The experiment was done by Curtana Pharmaceuticals. Data is presented as percentage of inhibition of enzyme activity. Software CORAL was used to make the kinome tree, which is available from: http://phanstiel-lab.med.unc.edu/CORAL/.

Turning to `Cc1cc(NCCCN(C)C)nc(NC(=O)Nc2ccc(Cl)c(Cl)c2)n1` [CT-179], the inhibition at 1 µM was determined as 84%.

The term inhibition denotes how much of the control response was suppressed. Low values mean little suppression, high ones strong suppression.
